Source: patent US20220054493A1, “INHIBITORS OF NGAL PROTEIN” (INSERM (INSTITUT NATIONAL DE LA SANTÉ ET DE LA RECHERCHE …, priority 2019, published 2022)

What was measured:
[1] = molecular target: T1, NGAL (Homo sapiens, UniProt P80188); assay: NGAL-induced profibrotic marker synthesis in human cardiac fibroblasts (western blot); assay type: cell-based; conditions: FIGS. 1 and 2 panel C
T1 construct: purchased R&D Systems
Procedure: (§1) Cell Culture Human cardiac fibroblasts (primary culture) were obtained from Promocell and maintained in medium (Fibroblast Media 3). Cells were cultured according to the manufacturer's instructions and used between passages 5 and 7. Cells were stimulated with aldosterone (10^-8 M, Sigma) or recombinant hNGAL (500 ng/mL, R&D Systems) for 24 h for protein analysis. Mouse kidney fibroblasts (MKF), were isolated from Wild Type (WT) mice. Briefly, mice 7 to 8 weeks were sacrificed by cervical dislocation and kidneys were cleaned and rinsed in cold DPBS (Dulbecco's Phosphate-Buffered Saline). The renal cortex was minced and incubated in Dulbecco's modified eagle medium/Nutrient mixture F-12 (DMEM/F12, Sigma) containing 1 mg/mL collagenase A (Roche) during 25 minutes at 37° C. […]
(§2) Total protein aliquots of 20 μg were prepared from cardiac homogenates and electrophoresed on SDS polyacrylamide gels and transferred to Hybond-c Extra nitrocellulose membranes (Amersham Biosciences). […] After densitometric analyses, optical density values were expressed as arbitrary units. Results are expressed as an n-fold increase over the values of the control group in densitometric arbitrary units.
(§3) The inhibitory activity of the compounds was evaluated on the NGAL-induced IL6 secretion (NGAL 10 ng/ml) in human cardiac fibroblasts. […]

[2] = molecular target: T1, NGAL; assay: NGAL-induced Col 1 secretion in human cardiac fibroblasts (ELISA); assay type: cell-based; conditions: FIGS. 1 and 2 panel B
Procedure: as §1, with “C. The digestion was inactivated by adding culture medium (DMEM/F12+10% FBS) then the cell suspension was passed through a 100-μm cell strainer. After centrifugation, the pellet (containing MKF) was diluted with culture medium then plated in 75 cm^2 culture flask.” for “C.”
(§4) NGAL, IL6 and collagen type I concentrations were measured in cardiac tissue and cell supernatants, respectively, by ELISA according to the manufacturer's instructions (R&D Systems).
as §3

[3] = system: aldosterone-induced profibrotic marker synthesis; assay: Aldosterone-induced profibrotic marker synthesis in human cardiac fibroblasts; assay type: cell-based; conditions: FIGS. 1 and 2 panel D
Procedure: as §1, with “Saline).” for “Saline). The renal cortex was minced and incubated in Dulbecco's modified eagle medium/Nutrient mixture F-12 (DMEM/F12, Sigma) containing 1 mg/mL collagenase A (Roche) during 25 minutes at 37° C.”
as §2, §4, §3

[4] = system: Myocardial Infarction Model; assay: Profibrotic, IL6 and inflammatory target tissue content in the myocardial infarction model; assay type: in vivo, mice; conditions: MI model, 100 mg/kg/day in food admix, three months
Procedure: Total protein aliquots of 20 μg were prepared from cardiac homogenates and electrophoresed on SDS polyacrylamide gels and transferred to Hybond-c Extra nitrocellulose membranes (Amersham Biosciences). Membranes were incubated with primary antibodies for: NGAL (Abcam; dilution 1:500), Collagen type III (Santa Cruz; dilution 1:500), a-SMA (Sigma; dilution 1:1000), CTGF Abcam; dilution 1:500), GDF-15 (Abcam; dilution 1:500), fibronectin (Millipore, 1:500), Galectin-3 (Thermo, 1:1000), Cardiotrophin-1 (Abcam, 1:500), osteopontin (Santa Cruz, 1:1000), cd3 (Abcam, 1:500), cd68 (Abcam, 1:500), cd80 (Santa Cruz, 1:500) and β-actin (Sigma; dilution 1:1000) as a loading control. […] After densitometric analyses, optical density values were expressed as arbitrary units. Results are expressed as an n-fold increase over the values of the control group in densitometric arbitrary units. NGAL, IL6 and collagen type I concentrations were measured in cardiac tissue and cell supernatants, respectively, by ELISA according to the manufacturer's instructions (R&D Systems).

[5] = system: human microsomes; assay: Stability in human microsomes; assay type: in vitro ADME
Procedure: (§5) Two specific toxicity assays have been performed to assess hepatoxicity and cardiotoxicity. Hepatotoxicity was evaluated in isolated hepatocytes from swiss mice and determined by the MTT colorimetric assay. Cardiotoxicity was evaluated using the commercially available Predictor hERG fluorescence polarization kit (Thermo Fisher Scientific). Several ADME assays have been carried out on the compounds generated throughout the project. The following experiments were undertaken: Stability in human microsomes, binding to human plasma protein, and CYP3A4 inhibition assay (Vivid CYP3A4 assay, Thermo Fisher Scientific). Physico-chemical properties were also assessed such as aqueous solubility and chemical stability.

[6] = Binding to human plasma protein; assay type: in vitro ADME; conditions: human, human plasma protein; read-out: hPPB (converted)
Procedure: as §5

[7] = system: human plasma protein; assay: Binding to human plasma protein; assay type: in vitro ADME
Procedure: as §5

T1 sequence (P80188 21-198): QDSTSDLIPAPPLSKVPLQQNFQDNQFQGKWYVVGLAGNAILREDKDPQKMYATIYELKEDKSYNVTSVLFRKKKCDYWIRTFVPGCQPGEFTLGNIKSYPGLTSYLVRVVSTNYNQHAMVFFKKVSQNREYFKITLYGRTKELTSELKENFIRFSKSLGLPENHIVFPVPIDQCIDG

**Q.** Which results are given for `CC(=O)c1cccc(S(=O)(=O)NCc2ccccc2-n2cccn2)c1` [GPZ614741]?
**A.** NGAL-induced profibrotic marker (col1, col III, fibronectin, Gal3, OPN) synthesis [1]: inhibited; Col 1 secretion (NGAL-induced) [2]: inhibited; aldosterone-induced profibrotic marker (Col1, CT-1, or IL6) synthesis [3]: inhibited; aSMA tissue content ([4]; FIG. 10 panel A): significant prevention of up regulation; GDF15 tissue content ([4]; FIG. 10 panel B): significant prevention of up regulation; CTGF tissue content ([4]; FIG. 10 panel C): significant prevention of up regulation; Col1 tissue content ([4]; FIG. 10 panel D): significant prevention of up regulation; IL6 tissue content ([4]; FIG. 11 panel A): significant prevention of up regulation; CD68 tissue content ([4]; FIG. 12 panel C): significant prevention of up regulation; CD 80 tissue content ([4]; FIG. 12 panel D): significant prevention of up regulation; CD86 tissue content ([4]; FIG. 12 panel E): significant prevention of up regulation; CD3 tissue content ([4]; FIG. 12 panels A, B): significant prevention of up regulation; microsomes degradation, left after 2 h ([5]; after 2 h): 2.2%; Micro Stability ([5]; human microsomes): 2.19%; fraction unbound [6]: 0.288; PPB (binding to plasma proteins) [7]: low
